# How the values were obtained:
# [1] = Transdermal delivery rate without enhancer
# Source text: The unpredictability of transdermal administration is notorious. […] Structurally and by calculated Log P, these compounds are very similar, such that this difference could not be anticipated. See, U.S. Provisional Appl. No. 62/568,028, filed Oct. 4, 2017, the content of which is incorporated by reference in its entirety.
# [2] = human, in vivo; cited from earlier work
# [3] = Transdermal flux test, Franz Diffusion Cell method; assay type: in vitro ADME, human
# Protocol: Transdermal flux of Dextromethorphan from the patch was tested using human cadaver epidermis by Franz Diffusion Cell method.
# Patch formulations A, B, and C prepared in Example 1 were used for a skin permeation study using the following protocol: • Franz cell assembly—Logan Instruments (6-cell unit) • Each cell has 12 mL volume, 1.5 cm diameter orifice • Receptor medium is a phosphate buffer solution (PBS) pH 7.4 • Cell temperature is maintained at 37° C. • Sampling method: take 1.5 mL for HPLC assay, empty cell, replace with fresh medium • Sampling time points: 4, 8, 12, 24 and 48 hours • Cadaver skin is used and is obtained from New York Fire Fighters Skin Bank. Skin No. MM07116, While, person, skin site: left posterior leg. • Assay method for media: HPLC based.
# Formulations D0-D2 were also tested for their in vitro flux characteristics following the same protocol as described in Example 2.
compound,measurement,setting,value
C[C@]12CC[C@H]3[C@@H](CCC4=CC(=O)CC[C@@]43C)[C@@H]1CC[C@@H]2O [testosterone],transdermal delivery rate relative to beta estradiol,[1],three orders of magnitude higher
COc1ccc2c(c1)[C@]13CCCC[C@@H]1[C@H](C2)N(C)CC3 [dextromethorphan],adverse reactions reported with the individual component,[2],"drowsiness, dizziness, nervousness or restlessness, nausea, vomiting, and stomach pain"
"CCCCCCCCCCCCCC(=O)OC(C)C [IPM, isopropyl myristate]",effect on flux of dextromethorphan,[3],significant enhancement of flux was observed
same,effect on skin permeation of DXM,[3],significantly enhance the skin permeation of DXM

# Reference: patent publication US12653794B2, “Dextromethorphan transdermal delivery device” (SHINKEI THERAPEUTICS, INC., priority 2017, dated 2026)
